Data taken from ChEMBL document CHEMBL4765416, “Design, synthesis, and evaluation of pyrrolidine based CXCR4 antagonists with in vivo anti-tumor metastatic activity” (Eur J Med Chem, 2020).
One block for each compound: values may come before it. The source made the active and inactive calls. The calls are words filed in the database; no cut-off is given here.

Columns and labels:
[1] = molecular target: T1, C-X-C chemokine receptor type 4 (Homo sapiens, UniProt P61073); test: Inhibition of APC-conjugated anti-human CXCR4 clone 12G5 binding to CXCR4 in human HPBALL cells measured after 3 hrs by FACS analysis; format: cell-based
[2] = Half life in rat liver microsomes at 1 uM peincubated for 10 mins followed by NADPH addition and measured 60 mins by LC-MS/MS analysis; format: ADME, Microsome; details: time 70 min
[3] = Intrinsic clearance in rat liver microsomes at 1 uM peincubated for 10 mins followed by NADPH addition and measured 60 mins by LC-MS/MS analysis; format: ADME, Microsome; details: time 70 min, read-out: CLH
CYP3A4 [4] = molecular target: T2, CYP3A4 (Homo sapiens, UniProt P08684); test: Inhibition of CYP3A4 in human liver microsomes at 10 uM using testosterone as substrate preincubated for 10 mins followed by NADPH addition measured after 10 mins by LC-MS/MS analysis relative to control; format: ADME; details: probe testosterone, time 20 min
MDA-MB-231 = test: Cytotoxicity against human MDA-MB-231 cells assessed as reduction in cell proliferation up to 1000 nM by ATP-based celltiter-glo luminescent assay
[5] = Protein binding in human plasma at 1 uM; format: ADME, cell-free; details: read-out: PPB (converted)
CYP2C19 = CYP2C19 (Homo sapiens, UniProt P33261); test: Inhibition of CYP2C19 in human liver microsomes at 10 uM using S-mephenytoin as substrate preincubated for 10 mins followed by NADPH addition measured after 10 mins by LC-MS/MS analysis relative to control; format: ADME; details: probe S-mephenytoin, time 20 min
[6] = molecular target: T1, C-X-C chemokine receptor type 4; test: Antagonist activity at CXCR4 in human CD4-positive T cells assessed as inhibition of CXCL12-induced cytosolic calcium flux preincubated for 20 mins followed by CXCL12 addition by calcium 4 dye based FLIPR TETRA analysis; format: functional, cell-based, T cell
Lewis lung carcinoma = test: Antimetastatic activity against RFP-labelled LL2 cells allografted in C57BL6 mouse assessed as reduction in metastatic lung nodules at 70 mg/kg, ip treated 30 mins prior to tumor implantation followed by redosing at 3 hrs post tumor implantation and subsequent daily dosing for 18 days by fluorescence assay; format: functional, organism-based; details: time 18.0 day
[7] = Dissociation constant, basic pKa of compound by titration method; format: physicochemical
CYP1A2 = molecular target: T3, CYP1A2 (Homo sapiens, UniProt P05177); test: Inhibition of CYP1A2 in human liver microsomes at 10 uM using phenacetin as substrate preincubated for 10 mins followed by NADPH addition measured after 10 mins by LC-MS/MS analysis relative to control; format: ADME; details: probe phenacetin, time 20 min
T3 sequence (P05177 whole entry): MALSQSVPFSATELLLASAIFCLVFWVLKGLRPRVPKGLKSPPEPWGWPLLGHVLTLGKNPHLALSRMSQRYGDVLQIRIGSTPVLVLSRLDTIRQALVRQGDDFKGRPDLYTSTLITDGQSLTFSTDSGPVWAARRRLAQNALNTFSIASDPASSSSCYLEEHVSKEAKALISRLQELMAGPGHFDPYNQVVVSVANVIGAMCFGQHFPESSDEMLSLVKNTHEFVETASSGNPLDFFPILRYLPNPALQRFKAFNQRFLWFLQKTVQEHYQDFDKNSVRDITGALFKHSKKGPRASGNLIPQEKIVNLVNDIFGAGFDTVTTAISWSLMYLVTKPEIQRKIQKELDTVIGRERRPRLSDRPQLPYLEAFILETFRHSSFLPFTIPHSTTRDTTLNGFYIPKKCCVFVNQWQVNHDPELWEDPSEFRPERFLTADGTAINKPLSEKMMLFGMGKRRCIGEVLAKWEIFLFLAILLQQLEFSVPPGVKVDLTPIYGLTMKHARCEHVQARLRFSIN

L929 = test: Cytotoxicity against mouse L929 cells assessed as reduction in cell proliferation up to 1000 nM by ATP-based celltiter-glo luminescent assay
[8] = Protein binding in mouse plasma at 1 uM; format: ADME, cell-free; details: read-out: PPB (converted)
CYP2D6 = CYP2D6 (Homo sapiens, UniProt P10635); test: Inhibition of CYP2D6 in human liver microsomes at 10 uM using dextromethorphan as substrate preincubated for 10 mins followed by NADPH addition measured after 10 mins by LC-MS/MS analysis relative to control; format: ADME; details: probe dextromethorphan, time 20 min
[9] = Protein binding in rat plasma at 1 uM; format: ADME, cell-free; details: read-out: PPB (converted)
[10] = molecular target: T4, C-C chemokine receptor type 6 (Homo sapiens) (UniProt P51684); test: Antagonist activity at CCR6 in human CD4-positive T cells assessed as inhibition of CCL20-induced cytosolic calcium flux up to 10 uM by calcium 4 dye based FLIPR TETRA analysis; format: functional; details: T cell, dose microM <=10
T4 sequence (whole entry): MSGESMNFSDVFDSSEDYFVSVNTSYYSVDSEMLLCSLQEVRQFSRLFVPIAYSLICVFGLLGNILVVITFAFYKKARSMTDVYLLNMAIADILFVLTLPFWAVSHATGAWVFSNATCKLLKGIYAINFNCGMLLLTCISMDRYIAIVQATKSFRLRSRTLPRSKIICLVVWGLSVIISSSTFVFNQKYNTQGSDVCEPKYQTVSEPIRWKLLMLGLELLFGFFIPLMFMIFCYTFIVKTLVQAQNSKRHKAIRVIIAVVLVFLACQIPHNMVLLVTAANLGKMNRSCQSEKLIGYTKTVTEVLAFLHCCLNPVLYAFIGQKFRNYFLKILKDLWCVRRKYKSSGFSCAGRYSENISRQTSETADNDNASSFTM

[11] = Cytotoxicity against […] Hepa1-6 cells assessed as reduction in cell proliferation up to 1000 nM by ATP-based celltiter-glo luminescent assay
[12] = Half life in human liver microsomes at 1 uM peincubated for 10 mins followed by NADPH addition and measured 60 mins by LC-MS/MS analysis; format: ADME, Microsome; details: time 70 min
[13] = molecular target: T5, C-X-C chemokine receptor type 1 (Homo sapiens) (UniProt P25024); test: Antagonist activity at CXCR1 (unknown origin) expressed in HEK293 cells assessed as suppression of IL-8-induced inhibition of forskolin-induced cAMP formation up to 10 uM preincubated for 15 mins followed by forskolin and IL-8 stimulation and measured after 15 mins by cAMP-d2 and Eu-Anti-cAMP based fluorescence assay; format: functional, cell-based; details: dose microM <=10, time 30.0 min
T5 sequence (whole entry): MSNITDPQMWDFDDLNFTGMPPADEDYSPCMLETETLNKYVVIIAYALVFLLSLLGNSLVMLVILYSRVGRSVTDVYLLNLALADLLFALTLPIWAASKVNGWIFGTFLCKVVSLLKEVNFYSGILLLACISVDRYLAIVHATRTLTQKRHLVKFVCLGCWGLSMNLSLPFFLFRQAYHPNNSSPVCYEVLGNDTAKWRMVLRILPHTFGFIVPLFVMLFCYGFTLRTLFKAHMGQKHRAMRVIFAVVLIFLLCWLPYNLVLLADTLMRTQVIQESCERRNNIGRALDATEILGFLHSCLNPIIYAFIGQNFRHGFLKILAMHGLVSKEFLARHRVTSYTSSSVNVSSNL

[14] = 1-Octanol/water partition coefficient, log P of compound at pH 7.4 measured after 24 hrs by shake flask method; format: physicochemical
CYP3A4 [15] = molecular target: T2, CYP3A4; test: Inhibition of CYP3A4 in human liver microsomes at 10 uM using midazolam as substrate preincubated for 10 mins followed by NADPH addition measured after 10 mins by LC-MS/MS analysis relative to control; format: ADME; details: probe midazolam, time 20 min
[16] = molecular target: T1, C-X-C chemokine receptor type 4; test: Antagonist activity at CXCR4 in human MDA-MB-231 cells assessed as inhibition of CXCL12-induced cell migration at 100 nM measured after 24 hrs by crystal violet staining based matrigel invasion assay; details: filed as antagonist
[17] = Intrinsic clearance in human liver microsomes at 1 uM peincubated for 10 mins followed by NADPH addition and measured 60 mins by LC-MS/MS analysis; format: ADME, Microsome; details: time 70 min, read-out: CLH
[18] = molecular target: Voltage-gated inwardly rectifying potassium channel KCNH2 (Homo sapiens, UniProt Q12809); test: Inhibition of human ERG stably expressed in CHO cells at -80 mV holding potential measured after 4 mins by Qpatch electrophysiological assay; format: cell-based
CYP2C9 = CYP2C9 (Homo sapiens, UniProt P11712); test: Inhibition of CYP2C9 in human liver microsomes at 10 uM using tolbutamide as substrate preincubated for 10 mins followed by NADPH addition measured after 10 mins by LC-MS/MS analysis relative to control; format: ADME; details: probe tolbutamide
MEF = test: Cytotoxicity against MEF cells assessed as reduction in cell proliferation up to 1000 nM by ATP-based celltiter-glo luminescent assay; details: mouse

T1 sequence (P61073 whole entry): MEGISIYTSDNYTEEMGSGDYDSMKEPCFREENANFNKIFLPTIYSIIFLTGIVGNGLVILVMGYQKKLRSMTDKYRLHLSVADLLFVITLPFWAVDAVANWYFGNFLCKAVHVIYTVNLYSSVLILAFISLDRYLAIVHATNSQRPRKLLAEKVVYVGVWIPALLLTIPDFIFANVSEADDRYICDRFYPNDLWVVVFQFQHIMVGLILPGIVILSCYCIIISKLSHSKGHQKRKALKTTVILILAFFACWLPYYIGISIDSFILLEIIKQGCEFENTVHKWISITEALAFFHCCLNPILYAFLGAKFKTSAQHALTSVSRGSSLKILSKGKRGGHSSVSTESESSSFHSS
T2 sequence (P08684 whole entry): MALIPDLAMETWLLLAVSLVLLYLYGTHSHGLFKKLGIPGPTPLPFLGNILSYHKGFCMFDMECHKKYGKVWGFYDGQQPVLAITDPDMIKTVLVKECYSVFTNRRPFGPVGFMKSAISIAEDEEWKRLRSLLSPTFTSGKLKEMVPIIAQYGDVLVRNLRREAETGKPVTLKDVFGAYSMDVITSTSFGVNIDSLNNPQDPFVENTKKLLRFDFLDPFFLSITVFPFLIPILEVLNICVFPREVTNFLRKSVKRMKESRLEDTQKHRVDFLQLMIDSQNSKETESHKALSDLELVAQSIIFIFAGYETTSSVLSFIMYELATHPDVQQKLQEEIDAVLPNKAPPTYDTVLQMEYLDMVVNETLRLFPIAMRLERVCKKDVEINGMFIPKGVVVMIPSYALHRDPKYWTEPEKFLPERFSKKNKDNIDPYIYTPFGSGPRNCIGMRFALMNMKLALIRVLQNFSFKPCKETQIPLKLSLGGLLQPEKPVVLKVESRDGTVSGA
Voltage-gated inwardly rectifying potassium channel KCNH2, sequence (Q12809 whole entry): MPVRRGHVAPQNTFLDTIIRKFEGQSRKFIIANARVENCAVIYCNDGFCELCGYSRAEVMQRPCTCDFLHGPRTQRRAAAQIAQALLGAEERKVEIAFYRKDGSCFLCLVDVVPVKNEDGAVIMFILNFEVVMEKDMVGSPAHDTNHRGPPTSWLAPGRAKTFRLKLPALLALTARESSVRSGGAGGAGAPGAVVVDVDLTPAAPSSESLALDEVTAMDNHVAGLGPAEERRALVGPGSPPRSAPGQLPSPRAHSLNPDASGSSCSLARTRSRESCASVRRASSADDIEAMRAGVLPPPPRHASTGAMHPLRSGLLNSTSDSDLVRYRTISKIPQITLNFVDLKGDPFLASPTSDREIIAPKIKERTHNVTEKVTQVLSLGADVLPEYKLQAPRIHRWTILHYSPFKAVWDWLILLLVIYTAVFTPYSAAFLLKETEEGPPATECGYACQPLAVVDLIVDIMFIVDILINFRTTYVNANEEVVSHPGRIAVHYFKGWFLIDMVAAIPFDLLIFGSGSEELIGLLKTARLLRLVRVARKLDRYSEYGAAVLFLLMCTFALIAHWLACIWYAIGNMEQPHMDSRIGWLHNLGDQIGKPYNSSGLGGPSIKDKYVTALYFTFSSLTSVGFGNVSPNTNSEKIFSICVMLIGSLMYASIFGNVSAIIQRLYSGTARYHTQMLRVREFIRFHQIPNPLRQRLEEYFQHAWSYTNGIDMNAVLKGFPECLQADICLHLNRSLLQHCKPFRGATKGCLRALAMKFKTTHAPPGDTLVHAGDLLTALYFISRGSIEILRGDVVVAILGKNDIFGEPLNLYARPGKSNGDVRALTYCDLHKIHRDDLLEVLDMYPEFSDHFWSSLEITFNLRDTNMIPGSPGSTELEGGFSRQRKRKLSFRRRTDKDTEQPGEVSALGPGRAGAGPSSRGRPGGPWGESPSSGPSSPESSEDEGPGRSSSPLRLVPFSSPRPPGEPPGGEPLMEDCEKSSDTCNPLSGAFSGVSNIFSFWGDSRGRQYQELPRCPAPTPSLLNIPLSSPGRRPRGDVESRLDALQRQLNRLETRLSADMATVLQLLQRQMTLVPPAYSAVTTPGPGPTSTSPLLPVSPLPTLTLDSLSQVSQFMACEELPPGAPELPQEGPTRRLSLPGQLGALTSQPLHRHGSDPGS
CYP2C9, sequence (P11712 whole entry): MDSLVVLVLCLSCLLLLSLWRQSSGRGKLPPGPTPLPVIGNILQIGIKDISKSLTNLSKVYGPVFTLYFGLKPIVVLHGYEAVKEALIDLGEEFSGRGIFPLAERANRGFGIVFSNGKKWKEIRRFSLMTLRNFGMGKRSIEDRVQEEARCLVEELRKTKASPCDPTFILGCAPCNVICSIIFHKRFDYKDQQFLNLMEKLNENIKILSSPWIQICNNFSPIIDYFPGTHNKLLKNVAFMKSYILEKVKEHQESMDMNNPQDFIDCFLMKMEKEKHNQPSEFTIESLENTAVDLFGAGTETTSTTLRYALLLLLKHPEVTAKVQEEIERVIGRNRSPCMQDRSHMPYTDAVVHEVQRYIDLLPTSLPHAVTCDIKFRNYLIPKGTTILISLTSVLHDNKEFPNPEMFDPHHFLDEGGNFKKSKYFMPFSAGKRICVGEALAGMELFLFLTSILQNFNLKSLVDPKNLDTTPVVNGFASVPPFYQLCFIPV
CYP2C19, sequence (P33261 whole entry): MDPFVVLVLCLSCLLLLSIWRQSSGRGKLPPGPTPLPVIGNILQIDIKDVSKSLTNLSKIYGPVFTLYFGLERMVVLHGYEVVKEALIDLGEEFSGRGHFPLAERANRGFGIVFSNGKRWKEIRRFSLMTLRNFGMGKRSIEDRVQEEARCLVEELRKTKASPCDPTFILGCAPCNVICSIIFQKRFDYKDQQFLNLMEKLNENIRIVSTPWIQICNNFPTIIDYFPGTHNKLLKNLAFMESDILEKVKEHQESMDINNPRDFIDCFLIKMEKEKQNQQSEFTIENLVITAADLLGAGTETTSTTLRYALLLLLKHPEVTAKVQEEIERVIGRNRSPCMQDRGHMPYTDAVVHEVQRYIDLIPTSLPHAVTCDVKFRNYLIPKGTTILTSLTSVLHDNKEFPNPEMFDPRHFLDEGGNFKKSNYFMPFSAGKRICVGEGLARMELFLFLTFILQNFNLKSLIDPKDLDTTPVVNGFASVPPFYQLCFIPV
CYP2D6, sequence (P10635 whole entry): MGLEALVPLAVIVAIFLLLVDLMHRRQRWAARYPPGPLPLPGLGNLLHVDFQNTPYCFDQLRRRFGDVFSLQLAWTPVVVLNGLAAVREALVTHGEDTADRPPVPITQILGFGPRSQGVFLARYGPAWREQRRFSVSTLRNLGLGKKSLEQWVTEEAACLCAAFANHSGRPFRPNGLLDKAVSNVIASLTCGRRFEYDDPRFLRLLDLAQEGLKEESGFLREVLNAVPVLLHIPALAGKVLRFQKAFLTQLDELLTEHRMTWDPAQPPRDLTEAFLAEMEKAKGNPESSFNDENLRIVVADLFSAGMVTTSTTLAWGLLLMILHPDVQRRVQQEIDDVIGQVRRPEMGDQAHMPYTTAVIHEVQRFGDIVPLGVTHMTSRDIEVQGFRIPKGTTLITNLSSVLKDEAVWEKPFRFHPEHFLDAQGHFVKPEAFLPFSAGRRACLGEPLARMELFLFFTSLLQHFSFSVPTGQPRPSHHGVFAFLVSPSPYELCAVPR

SMILES: Cc1ccnc([C@@H]2CCCN2Cc2cc(N3CCN(C)CC3)nc(C)n2)c1
IC50 [1]: 216 nM

SMILES: Cc1nc(CN2CCCCC2c2ccccn2)cc(N2CCN(C)CC2)n1 (stereo not given)
IC50 [1]: 620 nM

SMILES: Cc1nc(CN2CCC(C)C2c2ccccn2)cc(N2CCN(C)CC2)n1 (stereo not given)
IC50 [1]: 1550 nM

SMILES: Cc1nc(CN2CCC[C@H]2c2ccccn2)cc(N2CCN(C)CC2)n1
IC50 [6]: 2.7 nM
IC50 [1]: 220 nM

SMILES: Cc1ccc([C@@H]2CCCN2Cc2cc(N3CCN(C)CC3)nc(C)n2)nc1
IC50 [6]: 4.9 nM

SMILES: Cc1nc(CN2CCC[C@H]2c2ncccc2C)cc(N2CCCN(C)CC2)n1
IC50 [6]: 0.4 nM

The next lines start with results.

half-life at 1 µM [2]: 1.02 min
CLint scaled at 1 µM [3]: 2440 mL/min/kg
SMILES: CN1CCN(c2cc(CN(C)C3CCCc4cccnc43)nc(C3CC3)n2)CC1 (stereo not given)

inhibition at 10 min, 10 µM (CYP3A4 [4]): -4%
fraction unbound at 1 µM [5]: 0.05
inhibition at 10 min, 10 µM (CYP2C19): 11%
IC50 [6]: 0.25 nM
pKa [7]: 8.2
inhibition at 10 min, 10 µM (CYP1A2): -6%
IC50 [1]: 79 nM
fraction unbound at 1 µM [8]: 0.67
inhibition at 10 min, 10 µM (CYP2D6): -5%
fraction unbound at 1 µM [9]: 0.56
half-life at 1 µM [2]: 20.2 min
inhibition [10]: inactive
half-life at 1 µM [12]: 26.2 min
inhibition [13]: inactive
logD at 24 h [14]: 1.12
CLint scaled at 1 µM [3]: 123 mL/min/kg
inhibition at 10 min, 10 µM (CYP3A4 [15]): 7%
inhibition [16]: Active
CLint scaled at 1 µM [17]: 66 mL/min/kg
inhibition at 10 min, 10 µM (CYP2C9): 1%
SMILES: Cc1nc(CN2CCC[C@H]2c2ncccc2C)cc(N2CCN(C)CC2)n1
Activity (MDA-MB-231): Non-Toxic
Activity (Lewis lung carcinoma): Active
Activity (L929): Non-Toxic
Activity [11]: Non-Toxic
IC50 [18]: > 30000 nM
Activity (MEF): Non-Toxic

half-life at 1 µM [2]: 3.24 min
CLint scaled at 1 µM [3]: 767 mL/min/kg
SMILES: CN1CCN(c2cc(CN(C)C3CCCc4cccnc43)nc(N)n2)CC1 (stereo not given)

half-life at 1 µM [2]: 2.31 min
CLint scaled at 1 µM [3]: 1080 mL/min/kg
SMILES: Cc1nc(CN(C)C2CCCc3cccnc32)c(F)c(N2CCN(C)CC2)n1 (stereo not given)

half-life at 1 µM [2]: 2.2 min
CLint scaled at 1 µM [3]: 1130 mL/min/kg
SMILES: COc1nc(CN(C)C2CCCc3cccnc32)cc(N2CCN(C)CC2)n1 (stereo not given)

half-life at 1 µM [2]: 1.14 min
CLint scaled at 1 µM [3]: 2180 mL/min/kg
SMILES: CCN1CCN(c2cc(CN(C)[C@H]3CCCc4cccnc43)nc(C)n2)CC1

half-life at 1 µM [2]: < 1 min
CLint scaled at 1 µM [3]: > 497 mL/min/kg
SMILES: Cc1nc(CN(C)[C@H]2CCCc3cccnc32)cc(N2CCN(C)[C@H](C)C2)n1
